# Laboratory results as given in patent EP2949653A1, “ISOXAZOLE DERIVATIVES AS LEUKOTRIENE BIOSYNTHESIS INHIBITORS” (Banoglu, Erden, priority 2014, dated 2015).
# Molecular target: T1, 12-LO (Homo sapiens, UniProt P18054)
# T1 construct: 12-LO or 15-LO, up to 10 µM in A23187-stimulated neutrophils; endogenous in cells; host or cells: A23187-stimulated neutrophils
# T1 sequence (P18054 1-663): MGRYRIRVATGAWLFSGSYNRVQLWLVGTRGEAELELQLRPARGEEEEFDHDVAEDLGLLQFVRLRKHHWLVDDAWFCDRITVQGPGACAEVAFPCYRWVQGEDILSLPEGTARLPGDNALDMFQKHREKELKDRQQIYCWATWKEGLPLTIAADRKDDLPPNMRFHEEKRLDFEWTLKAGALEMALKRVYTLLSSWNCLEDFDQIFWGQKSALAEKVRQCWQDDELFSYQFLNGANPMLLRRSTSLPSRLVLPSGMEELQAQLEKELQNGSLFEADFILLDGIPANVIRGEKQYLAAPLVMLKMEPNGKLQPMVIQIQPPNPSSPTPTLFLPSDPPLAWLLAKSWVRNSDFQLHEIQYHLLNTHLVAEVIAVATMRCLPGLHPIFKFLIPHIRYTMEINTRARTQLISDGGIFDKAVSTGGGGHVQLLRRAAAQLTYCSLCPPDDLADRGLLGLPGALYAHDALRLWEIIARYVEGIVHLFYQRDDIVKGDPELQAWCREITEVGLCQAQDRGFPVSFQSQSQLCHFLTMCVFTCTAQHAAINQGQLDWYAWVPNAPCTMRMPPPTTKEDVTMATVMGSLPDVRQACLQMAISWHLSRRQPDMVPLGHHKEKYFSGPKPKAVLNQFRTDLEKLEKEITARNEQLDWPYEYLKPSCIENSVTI
# Experiment: 12-LO inhibition in A23187-stimulated neutrophils
# Format: cell-based
# Settings: up to 10 µM in A23187-stimulated neutrophils
smiles,measurement,value
"O=C(O)c1noc(-c2ccc(OCc3ccc4ccccc4n3)cc2)c1-c1ccc(Cl)cc1 [Compound 9hj, 4-(4-Chlorophenyl)-5-(4-(quinolin-2-ylmethoxy)phenyl)isoxazole-3-carboxylic acid]",inhibition of 12-LO,did not inhibit
